Assay results from US20090297492A1, “Method for Improving Cognitive Performance” (YAMAHA HATSUDOKI KABUSHIKI KAISHA, priority 2008, published 2009).

Assays:
[1] = tested on: healthy males aged 50 to 69; experiment: CogHealth cognitive function test (task-switching) with administration of astaxanthin; assay type: in vivo, human; details: for Simple reaction, average reaction time: 10 subjects
From the text: CogHealth, mentioned above, is based on task-switching that is used for evaluating higher brain functions (executive functions), such as the suppression of an action or the reorganization of information processing (A. F. Kramer et al., Nature, Vol. 400, pp. 418-419 (1999), N. J. Cepeda et al, Developmental Psychology, Vol. 37, No. 5, pp. 715-730 (2001), and S. Hsieh and L. C. Liu, Brain Res. Cogn. Brain Res., Vol. 22, No. 2, pp. 165-175 (2005)). Furthermore, fMRI analysis of brain proves that frontal lobe activity and task-switching relate to each other, and thus CogHealth is accepted as a frontal lobe function test. […] In CogHealth measurement, analysis is performed by calculating an average RT (reaction time) for each task.
“Simple reaction” refers to a task of pressing a button when a card is flipped from face-down to face-up. “Choice reaction” refers to a task of pressing a button based on the judgment of whether the card flipped from face-down to face-up is red or black. In other words, the simple reaction and the choice reaction are tasks relating to reaction time and suppression time in the function of the human frontal lobe. The simple reaction time is the time taken to perform one reaction to one sensory stimulus, and the choice reaction time is the time necessary to recognize a type of a given stimulus, and to make a reaction depending on the type in a predetermined manner.
“Working memory” refers to a task of pressing a button based on the judgment of whether or not a flipped card is the same as the preceding card. “Delayed recall” refers to a task of pressing a button based on the judgment of whether or not a flipped card is the same as a card that was present in the delayed recall task. “Working memory” and “delayed recall” are tasks for measuring memory, such as immediate memory and episodic memory. Working memory is a concept that includes not only information storage for a short period but also cognitive information processing. Working memory is memory used for a very short period of time in units of seconds, but the delayed recall is memory used for a period of time slightly longer than that of the working memory.
“Divided attention” refers to a task of pressing a button when at least one of five cards moving up and down is brought into contact with an upper or lower set line, and is a task for measuring spatially divided attention ability. In other words, such divided attention is an ability not to concentrate on one point but to allocate attention to the surroundings (spatially divided attention ability or spatially allocated attention ability). The meaning of divided attention is entirely different from attention scattering.
The astaxanthin-containing soft capsules (each capsule contains 3 mg of astaxanthin) were administered to the test subjects by ingestion of two capsules with water twice a day after eating breakfast and supper. The administration period was 12 weeks.
In this example, in order to evaluate cognitive function, measurement using CogHealth (based on task-switching) and P300 (one of the event-related potentials of an electroencephalogram) was performed at 6 weeks and 12 weeks after starting administration.
The average RT (reaction time) was calculated for each of the tasks “simple reaction”, “choice reaction”, “working memory”, “delayed recall”, and “divided attention”. For two memory tasks (“working memory” and “delayed recall”), analysis was performed by also calculating the average AR (correct answer ratio).
For each index, a multiple comparison (Dunnet) was performed to obtain the P value. Regarding the result of P300, a Student's t-test was used additionally as a comparison before and after ingestion.

[2] = tested on: healthy males aged 50 to 69; experiment: P300 event-related potential of electroencephalogram, auditory oddball paradigm; assay type: in vivo, human
From the text: On the other hand, event-related potential, which is a type of electroencephalogram, is a method for measuring cognitive functions by measuring the activity of the cerebral nerves during cognitive work. In particular, the P300 (P3b) component of event-related potential has been used to estimate the mental work load (A. F. Kramer and T. Weber, Handbook of psychophysiology (2nd Edition), J. T. Cacioppo et al. (Eds.), New York, Cambridge University Press, (2000) pp. 794-814). In a state where two tasks are simultaneously executed, when one task is made difficult (or the priority of one task is increased), the execution performance of the other task is lowered. Based on a study using such a dual-task method, the P300 amplitude is considered to clearly reflect the cognitive functions in the perception-central nerve level that caused the amplitude (E. Donchin et al., Psychophysiology: Systems, processes, and applications, M. G. H. Coles et al. (Eds.), New York, Guilford Press, (1986) pp. 702-718). That is to say, the P300 amplitude reflects the degree of attention, the degree of concentration, and the degree of cognitive load, for a task of recognizing surroundings.
In a P300 test, for example, an auditory oddball paradigm can be employed. […] Then, a change in the obtained amplitude before and after ingestion is measured based on the Grand Average. […]
In the electroencephalogram, an auditory oddball paradigm was used in which two types of sounds consisting of a high-pitched sound having a frequency of 2 KHz and a low-pitched sound having a frequency of 1 KHz were emitted from a headphone, and the test subjects were instructed to press a button as quickly and accurately as possible at the moment when the test subjects heard the high-pitched sound. […] The evoked electroencephalograms were measured with the frontal polar (Fpz) electrode as ground, and two linked electrode attached to the left and right earlobes as reference. […]

[3] = After 6 weeks, two 3 mg capsules twice a day, oral, Mean ± SD
[4] = After 12 weeks, two 3 mg capsules twice a day, oral, Mean ± SD

## CC1=C(/C=C/C(C)=C/C=C/C(C)=C/C=C/C=C(C)/C=C/C=C(C)/C=C/C2=C(C)C(=O)[C@@H](O)CC2(C)C)C(C)(C)C[C@H](O)C1=O [astaxanthin]
[1]; [3]
  Choice reaction, average reaction time: 480.63 ± 39.87 ms
  Delayed recall (Correct answer rate: %): 71.19 ± 5.98%
  Delayed recall, average reaction time: 975.40 ± 190.75 ms
  Divided attention, average reaction time: 419.52 ± 59.32 ms
  Working memory, average reaction time: 732.95 ± 174.83 ms
  Simple reaction, average reaction time: 303.31 ± 33.80 ms
[1]; [4]
  Choice reaction, average reaction time: 463.63 ± 26.49 ms
  Delayed recall (Correct answer rate: %): 70.71 ± 8.91%
  Delayed recall, average reaction time: 916.77 ± 151.04 ms
  Divided attention, average reaction time: 412.07 ± 51.97 ms
  Working memory (Correct answer rate: %): 96.30 ± 3.94%
  Working memory, average reaction time: 654.83 ± 128.42 ms
  Simple reaction, average reaction time: 281.76 ± 33.56 ms
[1]; before ingestion versus 6 weeks after ingestion, P=0.034
  Change in reaction time for divided attention: significant reduction
[1]; before ingestion versus 12 weeks after ingestion, P=0.013 to 0.034
  Change in reaction time, all tasks: significantly reduced
[1]; overall conclusion from CogHealth
  Effect on agility, judging ability and spatially allocated attention ability: an effect of improving agility
[1]; versus before ingestion
  Change in reaction time, all tasks of CogHealth: a reduction in reaction time was confirmed
[1]; versus before ingestion, P=0.045
  Change in correct answer ratio, working memory: significant increase
[1]; versus before ingestion, P=0.991
  Change in correct answer ratio, delayed recall: no significant change
[2]; After 12 weeks, at Fz, two 3 mg capsules twice a day, oral, Mean ± SD
  P300 Amplitude: −10.54 ± 3.39 μV
[2]; multiple comparisons, before/after comparison P=0.057
  Change in P300 amplitude at Fz: no significant change
[2]; overall conclusion from P300
  Effect on concentration on the recognition of surroundings: an effect of improving concentration on the recognition of surroundings
